# Values of other authors, collected in patent publication US20220143046A1, “COMPOSITION AND METHODS FOR RECTAL DELIVERY OF 4-AAPA AND 5-ASA COMPOUNDS” (9 METERS BIOPHARMA, INC., priority 2019, published 2022).
# System: toxin A-induced colonic inflammation
# Details: rats; cited from earlier US patents and McVey et al. 2005
compound,measurement,value
"O=C(O)Cc1ccc(/N=N/c2ccc(O)c(C(=O)O)c2)cc1 [INN-108, 5-(4-carboxymethyl-phenylazo)-2-hydroxybenzoic acid]",inhibition of toxin A-induced colonic inflammation,potent inhibitor
